Measured values as given in ChEMBL document CHEMBL6153051, “Synthesis, biological evaluation and validation of IMB-881 derivatives as anti-Gram-negative bacterial agents” (Bioorg Med Chem, 2025).
In brackets after ≈: the same amount, converted by molar mass.

How the values were obtained:
[1] = system: Escherichia coli; experiment: Antibacterial activity against Escherichia coli ATCC 25922 assessed as bacterial growth inhibition in presence of CAMHB medium by broth microdilution method; type: functional
[2] = system: Escherichia coli; experiment: Antibacterial activity against ESBL(+) producing Escherichia coli ATCC 35218 assessed as bacterial growth inhibition in presence of CAMHB medium by broth microdilution method; type: functional
[3] = system: Acinetobacter baumannii; experiment: Antibacterial activity against Acinetobacter baumannii ATCC 19606 assessed as bacterial growth inhibition in presence of CAMHB medium by broth microdilution method; type: functional
[4] = system: Klebsiella pneumoniae; experiment: Antibacterial activity against Klebsiella pneumoniae ATCC […] assessed as bacterial growth inhibition in presence of CAMHB medium by broth microdilution method; type: functional
[5] = system: Pseudomonas aeruginosa; experiment: Antibacterial activity against Pseudomonas aeruginosa PAO1 assessed as bacterial growth inhibition in presence of CAMHB medium by broth microdilution method; type: functional
[6] = Cytotoxicity against green monkey Vero cells incubated for 48 hrs by CCK-8 assay; type: toxicity, cell-based; settings: green monkey (Chlorocebus sabaeus)
[7] = Cytotoxicity against dog MDCK cells incubated for 48 hrs by CCK-8 assay; type: toxicity, cell-based; settings: dog (Canis lupus familiaris)
[8] = system: Escherichia coli; experiment: Antibacterial activity against multi-drug resistant Escherichia coli 1 clinical isolate assessed as bacterial growth inhibition in presence of CAMHB medium by broth microdilution method; type: functional
[9] = system: Escherichia coli; experiment: Antibacterial activity against multi-drug resistant Escherichia coli 2 clinical isolate assessed as bacterial growth inhibition in presence of CAMHB medium by broth microdilution method; type: functional
[10] = system: Escherichia coli; experiment: Antibacterial activity against multi-drug resistant Escherichia coli 3 clinical isolate assessed as bacterial growth inhibition in presence of CAMHB medium by broth microdilution method; type: functional
[11] = system: Escherichia coli; experiment: Antibacterial activity against multi-drug resistant Escherichia coli 4 clinical isolate assessed as bacterial growth inhibition in presence of CAMHB medium by broth microdilution method; type: functional
[12] = system: Escherichia coli; experiment: Antibacterial activity against multi-drug resistant Escherichia coli 5 clinical isolate assessed as bacterial growth inhibition in presence of CAMHB medium by broth microdilution method; type: functional
[13] = system: Acinetobacter baumannii; experiment: Antibacterial activity against multi-drug resistant Acinetobacter baumannii 1 clinical isolate assessed as bacterial growth inhibition in presence of CAMHB medium by broth microdilution method; type: functional
[14] = system: Acinetobacter baumannii; experiment: Antibacterial activity against multi-drug resistant Acinetobacter baumannii 2 clinical isolate assessed as bacterial growth inhibition in presence of CAMHB medium by broth microdilution method; type: functional
[15] = system: Acinetobacter baumannii; experiment: Antibacterial activity against multi-drug resistant Acinetobacter baumannii 3 clinical isolate assessed as bacterial growth inhibition in presence of CAMHB medium by broth microdilution method; type: functional
[16] = system: Acinetobacter baumannii; experiment: Antibacterial activity against multi-drug resistant Acinetobacter baumannii 4 clinical isolate assessed as bacterial growth inhibition in presence of CAMHB medium by broth microdilution method; type: functional
[17] = system: Acinetobacter baumannii; experiment: Antibacterial activity against multi-drug resistant Acinetobacter baumannii 5 clinical isolate assessed as bacterial growth inhibition in presence of CAMHB medium by broth microdilution method; type: functional

SMILES	MIC [1]	MIC [3]	MIC [4]	MIC [5]	IC50 at 48 h [6]	IC50 at 48 h [7]	further results
COc1ccc(CCN2COc3c(cc(Cl)c4cccnc34)C2)cc1OC	25 µg/mL	–	–	–	–	–	–
FC(F)(F)c1ccc(CN2COc3c(cc(Br)c4cccnc34)C2)cc1	50 µg/mL	–	–	–	–	–	–
Brc1cc2c(c3ncccc13)OCN(CCOc1ccccc1)C2	25 µg/mL	–	–	–	–	–	–
Cc1ccc(CCN2COc3c(cc(F)c4cccnc34)C2)cc1	25 µg/mL	–	–	–	–	–	–
Clc1cc2c(c3ncccc13)OCN(CCOc1ccccc1)C2	25 µg/mL	–	–	–	–	–	–
Fc1cc2c(c3ncccc13)OCN(CCc1ccc(Br)cc1)C2	6.25 µg/mL	3.12 µg/mL	100 µg/mL	100 µg/mL	> 50 µg/mL	44.9 µg/mL (≈ 116 µM)	MIC [2]: 25 µg/mL; MIC [8]: 50 µg/mL; MIC [9]: 50 µg/mL; MIC [10]: 50 µg/mL; MIC [11]: 50 µg/mL; MIC [12]: 50 µg/mL; MIC [13]: 12.5 µg/mL; MIC [14]: 3.12 µg/mL; MIC [15]: 12.5 µg/mL; MIC [16]: 25 µg/mL; MIC [17]: 6.25 µg/mL
Clc1ccc(CCN2COc3c(cc(Cl)c4cccnc34)C2)cc1	12.5 µg/mL	6.12 µg/mL	> 100 µg/mL	100 µg/mL	> 50 µg/mL	39.7 µg/mL (≈ 110 µM)	–
Fc1cc2c(c3ncccc13)OCN(Cc1ccc(C(F)(F)F)cc1)C2	12.5 µg/mL	12.5 µg/mL	100 µg/mL	100 µg/mL	46.1 µg/mL (≈ 127 µM)	7.93 µg/mL (≈ 21.9 µM)	–
Fc1cc2c(c3ncccc13)OCN(CCCCc1ccccc1)C2	6.25 µg/mL	6.25 µg/mL	> 100 µg/mL	100 µg/mL	36.1 µg/mL (≈ 107 µM)	29.3 µg/mL (≈ 87.1 µM)	–
Fc1cc2c(c3ncccc13)OCN(CCCc1ccccc1)C2	6.25 µg/mL	6.25 µg/mL	50 µg/mL	100 µg/mL	13.6 µg/mL (≈ 42.1 µM)	26 µg/mL (≈ 80.5 µM)	–
Clc1ccc(OCCN2COc3c(cc(Br)c4cccnc34)C2)cc1	50 µg/mL	–	–	–	–	–	–
Fc1cc2c(c3ncccc13)OCN(CCc1cccc(Br)c1)C2	6.25 µg/mL	6.25 µg/mL	50 µg/mL	100 µg/mL	> 50 µg/mL	32 µg/mL (≈ 82.5 µM)	MIC [2]: 25 µg/mL; MIC [8]: 50 µg/mL; MIC [9]: 50 µg/mL; MIC [10]: 50 µg/mL; MIC [11]: 50 µg/mL; MIC [12]: 50 µg/mL; MIC [13]: 250 µg/mL; MIC [14]: 25 µg/mL; MIC [15]: 25 µg/mL; MIC [16]: 12.5 µg/mL; MIC [17]: 12.5 µg/mL
Cc1ccc(CCN2COc3c(cc(Br)c4cccnc34)C2)cc1	50 µg/mL	–	–	–	–	–	–
Brc1cc2c(c3ncccc13)OCN(CCc1ccccc1)C2	25 µg/mL	–	–	–	–	–	–
Clc1cc2c(c3ncccc13)OCN(Cc1ccccc1)C2	12.5 µg/mL	6.25 µg/mL	> 100 µg/mL	100 µg/mL	> 50 µg/mL	33.8 µg/mL (≈ 109 µM)	–
Clc1cc2c(c3ncccc13)OCN(CCCCc1ccccc1)C2	12.5 µg/mL	3.12 µg/mL	100 µg/mL	100 µg/mL	> 50 µg/mL	33.8 µg/mL (≈ 95.9 µM)	–
Clc1ccc(CN2COc3c(cc(Br)c4cccnc34)C2)cc1	> 100 µg/mL	–	–	–	–	–	–
Clc1cc2c(c3ncccc13)OCN(CCc1cccc(Br)c1)C2	> 100 µg/mL	–	–	–	–	–	–
Fc1cc(CN2COc3c(cc(Br)c4cccnc34)C2)cc(F)c1F	25 µg/mL	–	–	–	–	–	–
Clc1cccc(CN2COc3c(cc(Br)c4cccnc34)C2)c1	25 µg/mL	–	–	–	–	–	–
COc1ccc(CCN2COc3c(cc(Br)c4cccnc34)C2)cc1OC	> 100 µg/mL	–	–	–	–	–	–
Fc1cc2c(c3ncccc13)OCN(CCc1ccc(Cl)cc1)C2	6.25 µg/mL	25 µg/mL	50 µg/mL	100 µg/mL	> 50 µg/mL	29.2 µg/mL (≈ 85.2 µM)	MIC [2]: 25 µg/mL; MIC [8]: 50 µg/mL; MIC [9]: 50 µg/mL; MIC [10]: 50 µg/mL; MIC [11]: 50 µg/mL; MIC [12]: 50 µg/mL; MIC [13]: 100 µg/mL; MIC [14]: 50 µg/mL; MIC [15]: 100 µg/mL; MIC [16]: 100 µg/mL; MIC [17]: 100 µg/mL
FC(F)(F)c1ccc(CN2COc3c(cc(Cl)c4cccnc34)C2)cc1	25 µg/mL	–	–	–	–	–	–
Fc1cc2c(c3ncccc13)OCN(CCOc1ccccc1)C2	25 µg/mL	–	–	–	–	–	–
Brc1cc2c(c3ncccc13)OCN(CCCc1ccccc1)C2	50 µg/mL	–	–	–	–	–	–
Fc1cc2c(c3ncccc13)OCN(CCc1ccccc1)C2	6.25 µg/mL	6.25 µg/mL	50 µg/mL	100 µg/mL	14.7 µg/mL (≈ 47.8 µM)	8.97 µg/mL (≈ 29.1 µM)	–

SMILES	MIC [1]	MIC [3]	MIC [4]	MIC [5]	IC50 at 48 h [6]	IC50 at 48 h [7]	further results
Fc1cc2c(c3ncccc13)OCN(CCc1cccc(Cl)c1)C2	6.25 µg/mL	6.25 µg/mL	50 µg/mL	100 µg/mL	> 50 µg/mL	42.3 µg/mL (≈ 123 µM)	MIC [2]: 25 µg/mL; MIC [8]: 50 µg/mL; MIC [9]: 50 µg/mL; MIC [10]: 50 µg/mL; MIC [11]: 50 µg/mL; MIC [12]: 50 µg/mL; MIC [13]: 6.25 µg/mL; MIC [14]: 25 µg/mL; MIC [15]: 25 µg/mL; MIC [16]: 12.5 µg/mL; MIC [17]: 25 µg/mL
Brc1cc2c(c3ncccc13)OCN(Cc1ccccc1)C2	25 µg/mL	–	–	–	–	–	–
Clc1ccc(OCCN2COc3c(cc(Cl)c4cccnc34)C2)cc1	25 µg/mL	–	–	–	–	–	–
Brc1ccc(CCN2COc3c(cc(Br)c4cccnc34)C2)cc1	50 µg/mL	–	–	–	–	–	–
Fc1ccc(CN2COc3c(cc(Cl)c4cccnc34)C2)c(F)c1	6.25 µg/mL	3.12 µg/mL	50 µg/mL	100 µg/mL	> 50 µg/mL	34.2 µg/mL (≈ 98.6 µM)	MIC [2]: > 100 µg/mL; MIC [8]: 50 µg/mL; MIC [9]: 50 µg/mL; MIC [10]: 50 µg/mL; MIC [11]: 50 µg/mL; MIC [12]: 50 µg/mL; MIC [13]: 50 µg/mL; MIC [14]: 25 µg/mL; MIC [15]: 50 µg/mL; MIC [16]: 25 µg/mL; MIC [17]: 50 µg/mL
Brc1cc2c(c3ncccc13)OCN(CCCCc1ccccc1)C2	25 µg/mL	–	–	–	–	–	–
Fc1ccc(CN2COc3c(cc(F)c4cccnc34)C2)c(F)c1	25 µg/mL	–	–	–	–	–	–
Fc1ccc(CN2COc3c(cc(Br)c4cccnc34)C2)c(F)c1	25 µg/mL	–	–	–	–	–	–
Cc1ccc(CCN2COc3c(cc(Cl)c4cccnc34)C2)cc1	50 µg/mL	–	–	–	–	–	–
Clc1cccc(CN2COc3c(cc(Cl)c4cccnc34)C2)c1	12.5 µg/mL	12.5 µg/mL	50 µg/mL	100 µg/mL	> 50 µg/mL	23.9 µg/mL (≈ 69.1 µM)	–
Fc1cc2c(c3ncccc13)OCN(Cc1ccccc1)C2	25 µg/mL	–	–	–	–	–	–
Oc1ccc(CCN2COc3c(cc(F)c4cccnc34)C2)cc1	> 100 µg/mL	–	–	–	–	–	–
Fc1cc2c(c3ncccc13)OCN(Cc1ccc(OC(F)(F)F)cc1)C2	25 µg/mL	–	–	–	–	–	–
Fc1ccc(CCN2COc3c(cc(Br)c4cccnc34)C2)cc1	25 µg/mL	–	–	–	–	–	–
FC(F)(F)Oc1ccc(CN2COc3c(cc(Cl)c4cccnc34)C2)cc1	50 µg/mL	–	–	–	–	–	–
FC(F)(F)Oc1ccc(CN2COc3c(cc(Br)c4cccnc34)C2)cc1	> 100 µg/mL	–	–	–	–	–	–
Fc1ccc(CCN2COc3c(cc(F)c4cccnc34)C2)cc1	12.5 µg/mL	12.5 µg/mL	100 µg/mL	100 µg/mL	27.7 µg/mL (≈ 84.8 µM)	15.8 µg/mL (≈ 48.3 µM)	–
Fc1cccc(CCN2COc3c(cc(F)c4cccnc34)C2)c1	3.12 µg/mL	3.12 µg/mL	25 µg/mL	25 µg/mL	21.3 µg/mL (≈ 65.2 µM)	29.4 µg/mL (≈ 90.2 µM)	–
Fc1cc2c(c3ncccc13)OCN(Cc1ccc(Cl)cc1)C2	6.25 µg/mL	6.25 µg/mL	100 µg/mL	50 µg/mL	> 50 µg/mL	35.6 µg/mL (≈ 108 µM)	MIC [2]: 25 µg/mL; MIC [8]: 50 µg/mL; MIC [9]: 50 µg/mL; MIC [10]: 50 µg/mL; MIC [11]: 50 µg/mL; MIC [12]: 50 µg/mL; MIC [13]: 12.5 µg/mL; MIC [14]: 25 µg/mL; MIC [15]: 12.5 µg/mL; MIC [16]: 3.12 µg/mL; MIC [17]: 25 µg/mL
Fc1cc2c(c3ncccc13)OCN(Cc1cccc(Cl)c1)C2	6.25 µg/mL	6.25 µg/mL	50 µg/mL	50 µg/mL	34 µg/mL (≈ 103 µM)	19 µg/mL (≈ 57.7 µM)	–
Fc1cc2c(c3ncccc13)OCN(CCOc1ccc(Cl)cc1)C2	12.5 µg/mL	12.5 µg/mL	50 µg/mL	100 µg/mL	> 50 µg/mL	22.3 µg/mL (≈ 62 µM)	–
Fc1ccc(CCN2COc3c(cc(Cl)c4cccnc34)C2)cc1	12.5 µg/mL	6.25 µg/mL	50 µg/mL	100 µg/mL	40.1 µg/mL (≈ 117 µM)	17.8 µg/mL (≈ 52.1 µM)	–
Clc1cc2c(c3ncccc13)OCN(CCc1ccc(Br)cc1)C2	12.5 µg/mL	6.25 µg/mL	> 100 µg/mL	100 µg/mL	> 50 µg/mL	35.2 µg/mL (≈ 87.3 µM)	–
Fc1cc(CN2COc3c(cc(Cl)c4cccnc34)C2)cc(F)c1F	25 µg/mL	–	–	–	–	–	–
Fc1cc(CN2COc3c(cc(F)c4cccnc34)C2)cc(F)c1F	25 µg/mL	–	–	–	–	–	–
